“And” between values parts separate entries of the source, which are not always exact repeats. Identical values can stand only once.
What was measured:
[1] = Volume of distribution (plasma volume) of FITC-Elohaes compared to Evans Blue labelled albumin in healthy rabbits; conditions: both, rabbit, in vivo, 0.2 mg/ml
Method: All rabbits used were adults of either sex, weighing approximately 3 kg. Both ears of the rabbit were first anaesthetised by topical application of Elma cream about 30 minutes prior to commencement of the procedure. A small cut was made into the left ear vein, using a scalpel, to enable relatively simple blood sampling. A sample of blood (approximately 1.0 ml) was obtained from the cut ear vein and collected into tubes coated with anti-coagulant (EDTA). […] A mixing time of at least 5 minutes was allowed before blood sampling began. Blood samples (≈1.0 ml) were then withdrawn at various time intervals following injection, up to a maximum of 2 days. Most samples were collected within the first 3 hours and no more than 9 post-injection blood samples were taken from each rabbit. The blood samples were then centrifuged {Centaur 2} at 2300 r.p.m. for 10-15 minutes and the plasma withdrawn.
The minimisation procedure was obtained from the NAG library {Numerical Algorithms Group, Oxford; Routine E04FCF:NAGFLIB:1652/0: Mk7: December 1978}. This routine was called by a programme, written by the user and incorporated a subroutine with the appropriate mathematical equation. […]
Thus, the volume of distribution was calculated from the degree of dilution (El-Sayed et al., 1995).

[2] = Volume of distribution of FITC-Elohaes compared with Evans Blue labelled albumin in healthy and endotoxic newborn piglets; conditions: approx 1.0 mg/kg, individual piglets and mean; for Vd: pig, in vivo, iv, 1 mg/kg
Method: Seventeen piglets were used in this study. The animals were randomised into two groups, a healthy (control) group and an Escherichia coli (endotoxic) group. The animals of the endotoxic group received a bolus injection of E. coli (1.667 μg/kg), followed by a continuous infusion of E. coli (1.667 μg/kg/hr) throughout the experiment. The control group received the same dose of isotonic saline injection and infusion. Approximately 30 minutes thereafter, a sample of blood (0.6 ml) was obtained from the femoral vein catheter prior to injection of the plasma marker. A volume between 0.5 ml and 1.0 ml of the indicator was injected {of approximately 1.0 mg/kg for both plasma markers} via the femoral vein catheter into the bloodstream. The catheter was then flushed clean with an equal volume of isotonic saline. […] As before, following the withdrawal of each sample, the catheter was flushed with an equal volume of isotonic saline. Samples were obtained at various time intervals over a 6 hour period, the majority were collected within the first hour after administration of the plasma marker. Blood samples were then centrifuged at approximately 2500 r.p.m for 10-15 minutes and plasma/serum withdrawn.

[3] = endotoxic (E. coli) newborn piglets

In the case of `Cc1cc(-c2ccc(/N=N/c3ccc4c(S(=O)(=O)O)cc(S(=O)(=O)O)c(N)c4c3O)c(C)c2)ccc1/N=N/c1ccc2c(S(=O)(=O)O)cc(S(=O)(=O)O)c(N)c2c1O` [Evans Blue], the Vd [1] is reported as 0.0531 L/kg, the VD [2, 3] is reported as 0.1401 L/kg and 0.0917 L/kg and 0.1138 L/kg and 0.1129 L/kg and 0.0783 L/kg and the VD ([2]; healthy newborn piglets) is reported as 0.0851 L/kg and 0.0862 L/kg and 0.0835 L/kg and 0.0869 L/kg. The Vd [2, 3] was 0.0983 L/kg and the Vd ([2]; healthy newborn piglets) was 0.0896 L/kg.
